Assay: gradient 5% acetonitrile 3 min, to 50% in 2 min, to 85% in 15 min, held 3 min, 100 µL/min
Settings: column: Zorbax Extend-C18 2.1 x 50 mm; eluents: water / acetonitrile, 0.1% formic acid
How it was run: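 Standards, all pure, were combined into mixtures of ~100 molecules and run at 100 μL/min on a Zorbax Extend-C18 column (2.1 × 50 mm, 1.8 μm) with water and acetonitrile, each containing 0.1% formic acid. A coupled quadrupole time-of-flight mass spectrometer operated in positive and negative ionization mode. Retention time values come from computationally picked adduct peaks, each inspected manually.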

| Compound | RP-LC retention time [s] |
| --- | --- |
| Cc1nnc(CNC(=O)CCn2nnc3ccccc3c2=O)o1 | 566 |
| CC1=C(c2ccc(C)cc2)S(=O)(=O)N=C1N1CCCN(C(=O)NCc2ccco2)CC1 | 803 |
| Cc1cccc(Cn2c(CN3CCC(C(=O)NCCc4ccco4)CC3)cc3ccccc32)c1 | 800 |
| CCc1ccc(NC(=O)CN2CCc3[nH]c4c(OC)ccc(Cl)c4c(=O)c3C2)cc1 | 661 |
| COc1cccc(-n2cc(C(=O)OCC(=O)OC(C)C)c3ccccc3c2=O)c1 | 1060 |
| CC(C)N1CCCn2cc(S(=O)(=O)Nc3ccc(F)cc3)cc2C1=O | 754 |
| CC(C)CN1C(=O)CCc2cc(NS(=O)(=O)c3ccccc3)ccc21 | 844 |
| Clc1ccc(-c2ccc(CNC3CC3)o2)c(Cl)c1 | 716 |
| COc1cccc2c(C)nc(NC3=NCN(CC4CCCO4)CN3)nc12 (stereo not given) | 627 |
| COc1ccc(N2CC(c3nc(-c4ccc(N(C)C)cc4)no3)CC2=O)cc1Cl (stereo not given) | 1030 |
| CN(C)S(=O)(=O)c1ccc2c(c1)N(CC(=O)N1CCc3ccccc31)C(=O)C1CCCCN21 (stereo not given) | 960 |
| CCc1ccccc1NC(=O)N1CCC(N(CCC(C)C)C2CCOCC2)CC1 | 665 |
| COC(=O)c1c(-c2cccc(F)c2)noc1NCCc1c(C)noc1C | 968 |
| COc1ccc(-c2cc(N3CCN(C(=O)Nc4cc(OC)ccc4OC)CC3)ncn2)cc1 | 685 |
| COc1ccc2c(c1)C1(CCN(S(=O)(=O)c3ccccc3)C1)C(=O)N2 (stereo not given) | 771 |
| O=C(c1cc(=O)c2ccccc2o1)N1CC2CC(C1)c1cccc(=O)n1C2 (stereo not given) | 598 |
| COCCOc1ccc2c(c1)ncn2-c1ccc2cccc(N3CCC(N)CC3)c2n1 | 645 |
| CC1CCCN(c2ccc(-c3noc(CN(C)C4CCCCC4)n3)cn2)C1 (stereo not given) | 721 |
| COc1ccc(-c2nc3cnccn3c2Nc2ccc(C(=O)NCc3ccco3)cc2)cc1OC | 682 |
| CC(C)n1cnc2ccc(-c3noc(-c4cccc(C#N)c4)n3)cc21 | 761 |

| Compound | RP-LC retention time [s] |
| --- | --- |
| Cc1ccc(CNC(=O)c2sc(Nc3ccc(F)cn3)nc2C)cc1 | 859 |
| CN1c2ccc(Cl)cc2C(=O)NC12CCN(C(=O)Nc1ccccc1)CC2 | 800 |
| Cc1cc2ccccc2n1-c1ccc(C(N)=O)s1 | 842 |
| CCN1CCCn2cc(S(=O)(=O)Nc3cc(F)ccc3C)cc2C1=O | 729 |
| CCn1nc(CNC(=O)c2cc(C)cc(C)c2)c2ccccc21 | 938 |
| CC(=O)c1cccc(NC(=O)Cn2c(-c3ccc(F)cc3)nc(C)cc2=O)c1 | 963 |
| Cc1ccc(S(=O)(=O)N2CC(=O)N(c3ccc(F)cc3)C(C)(C(=O)NC3CCCC3)C2)cc1 (stereo not given) | 956 |
| Cc1noc(C2CN(C(=O)Nc3ccc(Cl)cc3C)CC23CCOCC3)n1 (stereo not given) | 792 |
| COCCCNC(=O)c1ccc(-n2nc(Sc3ccc(Cl)cc3)ccc2=O)cc1 | 863 |
| O=C(/C=C\c1ccccc1)Nc1ccc(-c2cn3cccnc3n2)cc1 | 683 |
| CC(C)NCC(O)COc1ccccc1-n1cccc1 (stereo not given) | 701 |
| COc1ccc(NC(=O)C2CC(=O)N(c3ccc4oc(C)nc4c3)C2)cc1Cl (stereo not given) | 742 |
| COc1ccc(CSc2nccc3c2ccn3CC(=O)NCc2ccco2)cc1 | 686 |
| O=C(NCc1ccc(-n2ccnc2)cc1)c1ccc(F)c(F)c1 | 625 |
| CC(C)c1noc(C2(NC(=O)c3ccc(F)cc3)CCCCC2)n1 | 1010 |
| Clc1ccc(CSc2cc(Cl)ncn2)cc1 | 1170 |
| Cn1c(N2CCN(S(=O)(=O)c3cc(F)ccc3F)CC2)nc2ccccc21 | 601 |
| O=C(c1cc2ccccc2[nH]1)N1CCN2CCS(=O)(=O)N(C3CC3)C(=O)C2C1 (stereo not given) | 780 |
| COCCCNc1nccc(-n2nc(C)cc2C)n1 | 631 |
| CN1CCCCCCN(C(=O)C2(c3ccccc3)CC2)[C@H]2CCC[C@H]2C1=O | 958 |

| Compound | RP-LC retention time [s] |
| --- | --- |
| CC(=O)Nc1cccc(C(=O)NCCc2c[nH]c3ccc(Cl)cc23)c1 | 736 |
| CCCC[C@@H](C)/C=C(C)/C=C(\C)C(=O)NC1=C[C@@](O)(/C=C/C=C/C=C/C(=O)NC2=C(O)CCC2=O)[C@@H]2OC2C1=O (stereo not given in full) | 1250 |
| C=Cc1ccc(Cn2nc3c(S(=O)(=O)N4CCc5ccccc5C4)cccn3c2=O)cc1 | 1050 |
| Cc1sc(S(=O)(=O)N2CCSCC2)cc1NC(=O)c1ccc(C(C)(C)C)cc1 | 1150 |
| COCCNC(=O)CCc1cn(Cc2ccccc2C)c2ccccc12 | 919 |
| COc1cccc(N2CCN(c3cc(SCC(=O)NCc4ccccc4)ncn3)CC2)c1 | 891 |
| CCNC(=O)N1CCc2c([nH]c3ccc(Cl)cc23)C12C(=O)N(C)c1ccccc12 (stereo not given) | 822 |
| COc1ccc(Cn2ccc3nc(C)c(C(=O)NCCc4c[nH]c5ccccc45)cc3c2=O)cc1 | 807 |
| CCOc1ccc(C(=O)NCCc2nc3cccnc3n2CC)cc1 | 642 |
| COc1ccc(Br)cc1CNC(=O)Cn1cc(-c2nnc(C)o2)c2ccccc21 | 847 |
| CCN1C(SCC(=O)Nc2c(C)cc(C)cc2C)=NS(=O)(=O)c2ccccc21 | 788 |
| CS(=O)(=O)N(C1CCOCC1)C1CN(C(=O)NCc2ccccc2)C1 | 660 |
| COc1cc(NC(=O)CCc2c(C)nn3cnnc3c2C)cc(OC)c1 | 662 |
| Cn1cc(C2=CCN(S(=O)(=O)c3ccccc3F)CC2)c2cccnc21 | 944 |
| Cc1ccc(C2=NC3(CCN(C(=O)c4ccc(C#N)cc4)CC3)ON2)cc1 | 776 |
| Cc1ccc(-c2cc(C(=O)NCCN3CCCC3)n(C)c2)cc1 | 670 |
| COc1ccc(OC)c(C(C)NC(=O)CCc2ccc3nc[nH]c3c2)c1 (stereo not given) | 613 |
| CCOc1ccccc1-n1nnc(-c2nn3c(Cc4ccccc4)nnc3s2)c1C | 857 |
| CCCNC(=O)C1CCCN(S(=O)(=O)c2cc(-c3noc(CC)n3)cs2)C1 (stereo not given) | 841 |

Now from value to compound:

| RP-LC retention time [s] | Compound |
| --- | --- |
| 1290 | Cc1sc(NC(=O)CCC2CCCCC2)nc1-c1ccc2c(c1)N(C)C(=O)CO2 |
| 872 | Cn1ncc(Br)c1C(=O)N1CCCC1c1ccccc1F (stereo not given) |
| 879 | O=C(CCc1ccccc1)N1CCC(n2nnc3cc(F)ccc3c2=O)CC1 |
| 698 | O=C(Cc1nnc2cc(-c3nc(C4CC4)no3)ccn12)N1CCSCC1 |
| 943 | Cc1nn(C)c(=O)c2cc(S(=O)(=O)N3CCC(Cc4ccccc4)CC3)cn12 |
| 950 | Cc1cc2c(SCC(=O)N3CCCc4ccccc43)ncnc2s1 |
| 691 | CCN1CCC(N(Cc2ccc3c(c2)OCO3)C(=O)Nc2cccc(C)c2)CC1 |
| 692 | Cc1ccc(NC(=O)Nc2c(-c3ccc(F)cc3)nc3ccccn23)cc1 |
| 691 | CCNC(=O)C1CCCN(C(=O)Nc2ccc(NC(=O)Nc3ccc(F)cc3)cc2)C1 (stereo not given) |
| 810 | Cc1cccc(CCNC(=O)Cc2csc3nc(-c4ccccc4)cn23)c1 |
| 817 | CCC(CC)C(=O)N1CCc2c(c(C(=O)N3CCCC(C(=O)Nc4ccccc4C)C3)nn2C)C1 (stereo not given) |
| 915 | CCc1noc(-c2ccnc(-n3cnc(C(=O)NC4CCCCC4)c3)c2)n1 |
| 602 | NC(=O)C1CCN(C(=O)CCCc2nc3cccnc3n2Cc2ccc(F)cc2)CC1 |
| 654 | O=C(Nc1cnc(-c2cccnc2)nc1)C1CCCC1 |
| 567 | O=C(CSc1nc(CC(=O)N2CCN(c3ccccn3)CC2)cs1)c1cccs1 |
| 705 | CCn1cc(CCNC(=O)Nc2ccc(C)cc2C)c2cccnc21 |

| RP-LC retention time [s] | Compound |
| --- | --- |
| 732 | Cc1ccc(NC(=O)Cn2ncc3c(c2=O)N(C2CC2)C(=O)CS3)cc1C |
| 638 | O=C(Cn1ncc2c(N3CCN(c4ccccn4)CC3)ncnc21)Nc1cccc(Cl)c1 |
| 944 | Cn1c(=O)c(N2CCC(NC(=O)Nc3cccc(Cl)c3)CC2)nc2ccccc21 |
| 652 | O=C(NCC(O)c1ccsc1)c1ccc2c(c1)OCO2 (stereo not given) |
| 627 | CCCc1cc(N2CCN(C(=O)Cc3ccsc3)CC2)nc2nnc(C)n12 |
| 833 | CCOc1ccccc1NC(=O)N1CCCC1c1c(C)noc1C (stereo not given) |
| 745 | O=C(Cc1ccsc1)Nc1cccn2c(C3CCC3)nnc12 |
| 638 | COc1ccccc1NC(=O)CN1CCc2[nH]c3c(OC)ccc(Cl)c3c(=O)c2C1 |
| 944 | c1cc2c(cc1-c1nnc(C3CCCC3)o1)OCO2 |
| 820 | Cc1nc(-c2ccc(OC3CCN(C(=O)NC4CCCC4)C3)cc2)no1 (stereo not given) |
| 812 | O=c1c2nnc(SCc3ccc(F)cc3)n2ccn1-c1ccc(F)cc1 |
| 794 | CCc1ccc(NC(=O)C2CCN(S(=O)(=O)c3cn(CC)cn3)CC2)cc1 |
| 826 | CCOc1ccc2nc(NC(=O)C3CCN(C(=O)C4Sc5ccccc5NC4=O)CC3)sc2c1 (stereo not given) |
| 730 | O=C(NCc1ccc(F)cc1)N1CCC(n2c(-c3ccco3)nc3cccnc32)C1 (stereo not given) |
| 572 | O=C(NCc1cccs1)C1CCN(C(=O)c2cc(-c3ccncc3)n[nH]2)CC1 |
